# Where no end group is shown, it is not given here.
# Tested on: HRP-labeled IgG
# Experiment: PEI-PEG-Peptide antibody binding and free peptide competition (ELISA)
# Conditions: peptide 0 added after antibody, lowering competition (FIG. 1C)
# Protocol: PPP0 (Pei-PEG-Peptide0) was diluted into the coating buffer (1×TBS, pH7.2) (final concentration: 30 μg/ml) and immediately coated 96-well microplate with 100 µl per well of the diluted PPP0 solution. The plates were sealed and incubated overnight at room temperature.
# Wells were aspirated and washed with 300 µl of washing buffer (1×TBS containing 0.1% Tween 20, pH 7.4). The procedure was repeated two more times for a total of three washes
# In the next step plates were blocked by adding 300 µl 1% BSA in TBS and incubating for two hours.
# […] Next, 50 µl of HRP-labeled IgG (˜3 ug/ml in binding buffer) was added to each of the wells. The plate was shaken on a horizontal microplate shaker at 500±50 rpm for 10 rain and then incubate at 37° C. for 2 hours. After incubation, wells were washed 5 times with washing buffer to remove the competitors and HRP-IgG.
# 150 µl per well of freshly prepared substrate solution was added and incubated for 25-30 min at room temperature. The reaction was stopped by adding 70 µl of 2NH2SO4 into each well. Plate was gently tapped to ensure a thorough mixing. Optical density of each well was measured immediately, using a microplate reader set to 450 nm. Data was analyzed GraphPad Prism software.
substance,measurement,value
"PPP: Fc binding peptide (HWRGWVC)-PEG-PEI conjugate made with SCM-PEG-Mal (3400) and PEI 2K (also: conjugated to PEG(3400)-PEI 2K via SCM-PEG-Mal, site not given here)",off-rate for antibody dissociation from PPP,long

# Reference: patent publication US20110312877A1, “ENGINEERED TUNABLE NANOPARTICLES FOR DELIVERY OF THERAPEUTICS, DIAGNOSTICS, AND EXPERIMENTAL COMPOUNDS AND RELATED COMPOSITIONS FOR THERAPEUTIC USE” (APARNA BIOSCEIENCES, priority 2008, published 2011)
